Results on three compounds are retold here after patent publication US6080791A, “Method of treating a viral condition by inhibiting membrane fusion” (priority 1992, dated 2000).

In one series the test system is low pH BHA. The series is described as follows: SPA POST control (nonspecific quenching). Set-up: species or system C22 / X31 influenza virus (H3N2). The procedure:
The compounds being screened by SPA are present during scintillation counting. Some of the chemicals, particularly those that are highly colored, quench the detection of radioactivity. A control ("POST") distinguishes whether apparent inhibition arises from inhibition of the conformational change or from nonspecific effects. The test compound is added to a sample of BHA that had previously been acidified and reneutralized. The mixture is then precipitated as usual. Since the BHA treated in this manner is known to be in the low pH conformation, a reduction in measurable cpm compared to controls with ligand omitted proves the compound interferes with the detection system.
^3 H-Leu BHA was diluted to 10,000 cpm (counts per minute) per 200 μl in MSSH buffer (10 mM HEPES, 10 mM MES, 10 mM succinate, 0.10 M NaCl, pH 7.0) containing 0.1% NP40. Protein was incubated with the specified concentration of trial compound for 25 minutes at RT. The same volume of solvent used to dissolve the compound was added to control samples and the final concentration of DMSO in all solutions was 0.67% v/v. A predetermined amount of 1N HAc was added to bring the reactions to the appropriate pH (usually pH 5.0). Following a 5 minute (unless specified otherwise) incubation at RT, reactions were reneutralized with 1N NaOH. For POST controls, compounds were added to the appropriate concentration after reneutralization. 200 μL aliquots of the protein solution were added to scintillation vials containing 100 μl protein A-SPA beads (Amersham), 5% fetal bovine serum (FBS), and antibody. Vials were incubated overnight at RT with constant shaking. Each reaction used 10 μl of fusion peptide antiserum diluted 1:10 with 50% glycerol. Cpm were detected in a Beckman LS3801 scintillation counter without addition of liquid scintillant.
Apparent inhibition due to nonspecific effects was quantitated from the POST controls with the equation:
observed cpm=true cpm*quench factor

Series [1] relates to hemagglutinin-mediated hemolysis of human red blood cells. The series is described as follows: Hemolysis (HEM) assay. Type of series: cell-based, C22 influenza virus; human red blood cells. As to conditions: for inhibition at 100 µM: log conc -4 (M).
Another series deals with hemoglobin. The series is described as follows: Hb control (quenching of OD570 of hemoglobin). Details: species or system human.
For another series, the target named is HIV-1 fusion protein (Human immunodeficiency virus type 1 group M subtype B, UniProt P04578). The series is described as follows: Inhibition of fusion mediated by the HIV-1 fusion protein. Type of series: cell-based.
For series [2], the target named is T1, hemagglutinin (Influenza A virus (A/X-31(H3N2)), UniProt P03438).
T1 construct: HA1 and HA2 cleaved from precursor HA0
The series is described as follows: Binding site by crystallography (preliminary).

Series [3] deals with influenza-mediated syncytia formation, CV-1 cells.
A further series can be described thus: in vitro. As to conditions: dog, mdck.
For series [4], the system named is C22 virus in MDCK2 cells. The series is described as follows: microbe, parasite or virus in culture. As to conditions: unidentified influenza virus; for inhibition at 1 µM / inhibition at 10 µM / inhibition at 100 µM: MDCK2, 15 h, read-out: infectivity % inhibition.
Series [5] relates to influenza-mediated syncytia formation, CV-1 cells. The series is described as follows: cells. Conditions: unidentified influenza virus, CV-1, read-out: IC50 syncytia.
For series [6], the target named is hemagglutinin (BHA), fusion peptide exposure (Influenza A virus (A/X-31(H3N2)), UniProt P03438). Type of series: biochemical, C22 / X31 influenza virus (H3N2).
Series [7] addresses BHA (Influenza A virus (A/X-31(H3N2)), UniProt P03438). The series is classed as biochemical, C22 / X31 influenza virus (H3N2). Conditions: 1 mM.
Series [8] addresses C22 BHA (Influenza A virus (A/X-31(H3N2)), UniProt P03438). Type of series: biochemical.
Series [9] concerns C22 virus in MDCK2 cells.
[10] abbreviates: unidentified influenza virus, Erythrocyte, 0.25 h, Table 6, 10^-3 = 1 mM, low pH 15 minutes, read-out: IC50 hemolysis.
The mark [11] stands for this setting: unidentified influenza virus, Erythrocyte, Table 7, read-out: HEM, negative log of IC50 (converted).
[12] abbreviates: unidentified influenza virus, Erythrocyte, read-out: hemolysis % ↓ OD.
Where [13] appears, read: MDCK2, read-out: IC50 infectivity.
[14] abbreviates: MDCK2, read-out: INF, negative log of IC50 (converted).

Each structure is given as a SMILES string. Like-named read-outs stand apart in the source and are kept apart here.

In the case of `O=C1C=CC(=O)c2ccccc21` [Compound 90, 1,4-naphthoquinone], the “% inhibition, POST control” value with low pH BHA (log conc -3 (M)) turned out to be 68.2%; in the series on low pH BHA (log conc -4 (M)), 30.8%; in the series on low pH BHA (log conc -5 (M)) it was 4.6%. Moreover, the half-inhibitory concentration (IC50) in [1] (setting [10]) was 1000 µM; in [1] (setting [11]) it was 1000 µM; on HIV-1 fusion protein it was 2 µM; in the series on C22 virus in MDCK2 cells [4] (setting [13]), 10 µM; with C22 virus in MDCK2 cells [4] (setting [14]), 10 µM. For the same compound, the inhibition at 1000 µM in [1] (unidentified influenza virus, Erythrocyte, log conc -3 (M), read-out: hemolysis % ↓ OD) turned out to be 90.3%. The inhibition at 100 µM amounted to 33.1% in series [1] (setting [12]) and 96.9% in the series with C22 virus in MDCK2 cells [4]. In addition, the inhibition at 10 µM in series [1] (unidentified influenza virus, Erythrocyte, log conc -5 (M), read-out: hemolysis % ↓ OD) came to 4.7%; with C22 virus in MDCK2 cells [4], 81.7 ± 2.2%. The “Hb control % ↓ OD” value with hemoglobin (log conc -3 (M)) is 68.1%; in the series on hemoglobin (log conc -4 (M)) it was 57.1%; in the series on hemoglobin (log conc -5 (M)) it was 24.9%. For the same compound, the “binding site (preliminary crystallographic results)” value in series [2] is “binding to hemagglutinin at a site in the hinge region of the trimer”. In addition, in [3] (Table 6), the “syncytia, Table 6” value is “morph”. The cytotoxicity at 15 h, 1 µM in the series “in vitro” was -6.7 ± 7.3%. For the same compound, in “in vitro”, the cytotoxicity at 15 h, 10 µM is 33 ± 9.9%. Also, in “in vitro”, the cytotoxicity at 15 h, 100 µM was 96.8 ± 3.8%. In the series on C22 virus in MDCK2 cells [4], the inhibition at 1 µM was -3.3 ± 2.4%.

As for `O=C1C=C(O)C(=O)c2ccccc21` [Compound 120, 2-hydroxy-1,4-naphthoquinone], in series [1], the “inhibition of hemolytic activity” value is reported as “did not”. Moreover, the IC50 in series [1] (setting [10]) is more than 100 µM; in [1] (setting [11]) it was more than 100 µM; in series [5], more than 10 µM; in the series on C22 virus in MDCK2 cells [4] (setting [13]), more than 1000 µM; with C22 virus in MDCK2 cells [4] (setting [14]), more than 1000 µM. Moreover, the inhibition at 100 µM was 6.2% in series [1] (setting [12]) and -2.3 ± 3.1% in the series with C22 virus in MDCK2 cells [4]. For the same compound, in the series with hemoglobin (log conc -4 (M)), the “Hb control % ↓ OD” value amounted to 4.4%. For the same compound, in [3] (10 μM), the “inhibition of syncytia formation” value is given as “Significant inhibition was not observed”. In addition, in the series “in vitro”, the cytotoxicity at 15 h, 1 µM was found to be 0.5 ± 0.3%. The cytotoxicity at 15 h, 10 µM in the series “in vitro” was -6 ± 5%. The cytotoxicity at 15 h, 100 µM in “in vitro” is -7 ± 4.4%. In the series on C22 virus in MDCK2 cells [4], the inhibition at 1 µM worked out at 7.1 ± 6.7%. The inhibition at 10 µM in the series on C22 virus in MDCK2 cells [4] was found to be 4.7 ± 0.9%.

Consider `O=C1C=CC(=O)C2C3C=CC(C3)C12` (stereo not drawn) [Compound 83K, 4A,5,8,8A-tetrahydro-5,8-methano-1,4-naphthoguinone], for which the “% inhibition, sample (Table 1)” value in series [6] was determined as 49.1 ± 15.0%. Besides, the “inhibition at 10^-5 M” value in [6] (10^-5 M) is “negligible inhibition”. For the same compound, the figures for the “Inhibition of the POST controls” value with low pH BHA (10 mM) and with low pH BHA (all other concentrations (below 10 mM)) were 26.4% and not above 4%, respectively. The “% inhibition, POST control” value with low pH BHA (log conc -3 (M)) is -5.3 ± 2.1%; in the series with low pH BHA (log conc -4 (M)), 3.0%; in the series on low pH BHA (log conc -5 (M)), 0.8 ± 12.7%; with low pH BHA (log conc -6 (M)), -6.2%. The “reversibility of inhibition by dilution” value in series [7] is “reversible by dilution”. Besides, the “inhibition at low pH” value in [8] (10 seconds at pH 5.0) is on record as 73%; in series [8] (10 minutes at pH 5.0), 43%. In addition, the “fraction of its maximal inhibition of fusion peptide exposure maintained” value in series [8] (after 10 minutes at pH 5.0, C22 BHA) is 60%. Besides, in series [1], the “inhibition of hemolytic activity” value is reported as “apparently inhibited hemolytic activity”. Besides, the IC50 in series [1] (setting [11]) is 100 to 1000 µM. Further, in the series on C22 virus in MDCK2 cells [9] (Table 6), the “infectivity in Table 6” value is “toxic”. In addition, the “INF, words (Table 7)” value in the series on C22 virus in MDCK2 cells [9] (Table 7) is “toxic”. Further, in “in vitro”, the cytotoxicity at 15 h, 1 µM worked out at 3.4 ± 10.5%. In “in vitro”, the cytotoxicity at 15 h, 10 µM stood at 7.3 ± 8.9%. Besides, in the series “in vitro”, the cytotoxicity at 15 h, 100 µM came out at 46.4 ± 15.1%. The cytotoxicity at 15 h, 1000 µM in the series “in vitro” was 92.9 ± 7.4%.
